The text below walks through data of ChEMBL document CHEMBL1250444, “Nitric oxide activates TRP channels by cysteine S-nitrosylation” (Nat Chem Biol, 2006).

Assay [1] addresses T1, Short transient receptor potential channel 5 (Homo sapiens) (UniProt Q9UL62).
T1 sequence (whole entry): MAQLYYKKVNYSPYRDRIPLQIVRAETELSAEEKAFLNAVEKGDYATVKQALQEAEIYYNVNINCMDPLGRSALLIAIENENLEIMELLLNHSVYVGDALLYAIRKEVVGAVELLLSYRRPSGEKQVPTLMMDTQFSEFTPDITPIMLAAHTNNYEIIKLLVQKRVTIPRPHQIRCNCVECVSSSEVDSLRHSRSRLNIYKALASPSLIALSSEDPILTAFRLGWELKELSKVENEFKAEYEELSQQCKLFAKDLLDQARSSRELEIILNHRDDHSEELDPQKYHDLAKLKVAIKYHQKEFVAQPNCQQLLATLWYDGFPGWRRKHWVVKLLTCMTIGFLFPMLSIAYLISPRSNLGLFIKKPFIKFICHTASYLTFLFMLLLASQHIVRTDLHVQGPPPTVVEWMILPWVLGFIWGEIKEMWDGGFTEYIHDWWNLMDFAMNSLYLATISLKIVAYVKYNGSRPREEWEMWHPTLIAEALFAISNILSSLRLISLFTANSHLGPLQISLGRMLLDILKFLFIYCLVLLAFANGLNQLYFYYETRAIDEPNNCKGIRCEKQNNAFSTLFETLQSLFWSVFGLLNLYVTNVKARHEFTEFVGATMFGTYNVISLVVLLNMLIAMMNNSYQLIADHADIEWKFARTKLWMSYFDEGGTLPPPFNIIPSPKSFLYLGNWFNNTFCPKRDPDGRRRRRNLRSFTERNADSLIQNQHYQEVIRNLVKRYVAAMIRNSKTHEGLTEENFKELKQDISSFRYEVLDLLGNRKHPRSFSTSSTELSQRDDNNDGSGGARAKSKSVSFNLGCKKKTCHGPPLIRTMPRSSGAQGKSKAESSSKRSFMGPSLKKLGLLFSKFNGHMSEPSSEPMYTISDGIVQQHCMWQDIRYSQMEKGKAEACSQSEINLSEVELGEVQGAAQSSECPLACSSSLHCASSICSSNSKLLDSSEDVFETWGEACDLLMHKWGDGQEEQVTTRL
Put plainly: Induction of S-nitrosylation of TRPC5 in HEK cells assessed as increase in Ca2+ level from extracellular space at 1 mM in presence of ascorbic acid. In kind it is cell-based. The following applies: HEK293.

The target in assay [2] is T1, Short transient receptor potential channel 5 (Homo sapiens). As to the kind of experiment: Induction of S-nitrosylation of TRPC5 in HEK cells assessed as increase in Ca2+ level from extracellular space at 30 uM in presence of ascorbic acid. In kind it is cell-based. The following applies: HEK293.

The source made the active and inactive calls. The rule behind the calls is not given here.

For the compound `CC(=O)N[C@@H](C(=O)O)C(C)(C)SN=O` (racemic), the result in assay [1] was inactive.

As for `O=[N+]([O-])c1ccc(SSc2ccc([N+](=O)[O-])cn2)nc1`, the result in assay [2] was Active.
